Reference: ChEMBL document CHEMBL5653631, “A Potent and Selective ULK1 Inhibitor Suppresses Autophagy and Sensitizes Cancer Cells to Nutrient Stress” (iScience, 2018)

Experiments:
[1] = target: T1, Serine/threonine-protein kinase 17B (Homo sapiens) (UniProt O94768); assay: Inhibition of human recombinant DRAK2 at 500 nM related to control ULK1
T1 sequence (whole entry): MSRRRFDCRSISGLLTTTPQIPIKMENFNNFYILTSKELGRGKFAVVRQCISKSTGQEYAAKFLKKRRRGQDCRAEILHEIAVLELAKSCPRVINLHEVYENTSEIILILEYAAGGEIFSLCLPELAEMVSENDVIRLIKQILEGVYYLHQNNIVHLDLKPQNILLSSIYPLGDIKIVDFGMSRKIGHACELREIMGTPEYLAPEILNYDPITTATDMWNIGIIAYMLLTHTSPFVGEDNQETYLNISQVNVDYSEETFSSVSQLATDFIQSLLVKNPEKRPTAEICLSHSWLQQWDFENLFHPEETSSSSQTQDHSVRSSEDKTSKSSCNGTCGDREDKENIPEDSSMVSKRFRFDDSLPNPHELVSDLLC

[2] = target: Tyrosine-protein kinase JAK2 (Homo sapiens) (UniProt O60674); assay: Inhibition of human recombinant JAK2 at 500 nM related to control ULK1
Chain of Tyrosine-protein kinase JAK2 (Homo sapiens) (O60674 whole entry): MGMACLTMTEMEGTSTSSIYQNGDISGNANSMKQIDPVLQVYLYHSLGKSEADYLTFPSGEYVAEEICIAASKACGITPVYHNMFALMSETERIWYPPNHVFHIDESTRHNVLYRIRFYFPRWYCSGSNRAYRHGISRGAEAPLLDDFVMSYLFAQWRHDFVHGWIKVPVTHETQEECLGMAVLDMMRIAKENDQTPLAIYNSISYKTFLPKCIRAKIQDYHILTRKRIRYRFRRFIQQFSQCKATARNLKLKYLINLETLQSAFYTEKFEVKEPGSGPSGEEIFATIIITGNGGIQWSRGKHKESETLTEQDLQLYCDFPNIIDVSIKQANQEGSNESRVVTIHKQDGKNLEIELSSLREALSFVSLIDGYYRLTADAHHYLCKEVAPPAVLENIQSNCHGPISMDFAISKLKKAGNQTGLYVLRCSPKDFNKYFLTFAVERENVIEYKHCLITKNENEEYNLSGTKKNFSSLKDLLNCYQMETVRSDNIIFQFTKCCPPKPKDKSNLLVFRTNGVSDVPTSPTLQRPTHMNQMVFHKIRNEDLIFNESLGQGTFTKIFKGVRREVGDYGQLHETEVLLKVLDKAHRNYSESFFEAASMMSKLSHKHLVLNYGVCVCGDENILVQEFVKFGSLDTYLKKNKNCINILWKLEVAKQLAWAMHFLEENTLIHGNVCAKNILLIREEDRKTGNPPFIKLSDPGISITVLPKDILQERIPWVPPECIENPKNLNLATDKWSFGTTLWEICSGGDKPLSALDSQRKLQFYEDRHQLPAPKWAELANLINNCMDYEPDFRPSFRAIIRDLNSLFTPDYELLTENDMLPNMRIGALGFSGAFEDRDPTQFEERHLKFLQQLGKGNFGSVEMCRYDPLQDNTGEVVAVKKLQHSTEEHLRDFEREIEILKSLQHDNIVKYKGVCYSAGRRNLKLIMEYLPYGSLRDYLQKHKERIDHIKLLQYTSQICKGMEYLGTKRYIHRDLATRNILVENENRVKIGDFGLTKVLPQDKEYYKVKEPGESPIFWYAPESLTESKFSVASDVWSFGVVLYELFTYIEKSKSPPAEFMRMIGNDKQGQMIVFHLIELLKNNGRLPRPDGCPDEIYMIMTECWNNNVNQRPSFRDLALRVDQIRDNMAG

[3] = target: T2, MAPK/MAK/MRK overlapping kinase (Homo sapiens) (UniProt Q9UQ07); assay: Inhibition of human recombinant MOK at 500 nM related to control ULK1
T2 sequence (whole entry): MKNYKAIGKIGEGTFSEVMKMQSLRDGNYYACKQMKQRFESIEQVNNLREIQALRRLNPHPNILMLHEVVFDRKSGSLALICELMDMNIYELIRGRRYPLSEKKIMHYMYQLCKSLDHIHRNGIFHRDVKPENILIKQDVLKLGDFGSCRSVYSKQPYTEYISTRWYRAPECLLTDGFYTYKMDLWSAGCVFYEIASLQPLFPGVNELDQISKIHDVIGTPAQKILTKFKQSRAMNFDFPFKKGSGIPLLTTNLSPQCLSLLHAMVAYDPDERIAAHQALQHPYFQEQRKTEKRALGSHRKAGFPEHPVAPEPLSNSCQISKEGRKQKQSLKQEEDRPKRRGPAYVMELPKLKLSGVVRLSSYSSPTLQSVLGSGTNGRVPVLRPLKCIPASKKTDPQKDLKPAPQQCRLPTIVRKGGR

[4] = target: T3, Serine/threonine-protein kinase ULK3 (Homo sapiens) (UniProt Q6PHR2); assay: Inhibition of human recombinant ULK3 at 500 nM related to control ULK1
T3 sequence (whole entry): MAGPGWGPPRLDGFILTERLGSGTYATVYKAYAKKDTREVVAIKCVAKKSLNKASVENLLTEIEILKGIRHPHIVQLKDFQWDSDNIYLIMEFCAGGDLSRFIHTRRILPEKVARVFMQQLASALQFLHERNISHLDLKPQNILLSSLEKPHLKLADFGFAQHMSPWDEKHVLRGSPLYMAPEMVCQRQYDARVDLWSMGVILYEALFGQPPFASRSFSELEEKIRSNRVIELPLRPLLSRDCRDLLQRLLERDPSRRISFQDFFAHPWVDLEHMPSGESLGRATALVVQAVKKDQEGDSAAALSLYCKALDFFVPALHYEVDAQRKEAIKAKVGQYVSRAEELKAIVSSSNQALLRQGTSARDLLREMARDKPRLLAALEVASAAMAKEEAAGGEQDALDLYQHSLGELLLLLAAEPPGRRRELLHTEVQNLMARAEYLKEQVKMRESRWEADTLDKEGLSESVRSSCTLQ

[5] = target: Casein kinase II subunit alpha (Homo sapiens) (UniProt P68400); assay: Inhibition of human recombinant CK2a1 at 40 nM related to control ULK1
Chain of Casein kinase II subunit alpha (Homo sapiens) (P68400 whole entry, looked up, canonical isoform): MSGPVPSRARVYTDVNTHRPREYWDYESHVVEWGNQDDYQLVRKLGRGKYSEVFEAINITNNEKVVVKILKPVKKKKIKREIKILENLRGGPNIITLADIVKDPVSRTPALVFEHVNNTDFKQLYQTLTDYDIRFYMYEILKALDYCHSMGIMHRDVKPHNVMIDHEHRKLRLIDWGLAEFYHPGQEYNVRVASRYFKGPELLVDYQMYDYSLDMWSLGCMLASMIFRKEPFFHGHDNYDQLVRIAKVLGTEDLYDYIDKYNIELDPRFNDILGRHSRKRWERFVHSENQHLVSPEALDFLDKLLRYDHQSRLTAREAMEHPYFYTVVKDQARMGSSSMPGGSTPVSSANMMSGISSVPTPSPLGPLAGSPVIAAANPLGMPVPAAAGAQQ

[6] = target: T4, Phosphorylase b kinase gamma catalytic chain, liver/testis isoform (Homo sapiens) (UniProt P15735); assay: Inhibition of human recombinant PHKg2 at 40 nM in presence of ATP by radiometric assay relative to control
T4 sequence (whole entry): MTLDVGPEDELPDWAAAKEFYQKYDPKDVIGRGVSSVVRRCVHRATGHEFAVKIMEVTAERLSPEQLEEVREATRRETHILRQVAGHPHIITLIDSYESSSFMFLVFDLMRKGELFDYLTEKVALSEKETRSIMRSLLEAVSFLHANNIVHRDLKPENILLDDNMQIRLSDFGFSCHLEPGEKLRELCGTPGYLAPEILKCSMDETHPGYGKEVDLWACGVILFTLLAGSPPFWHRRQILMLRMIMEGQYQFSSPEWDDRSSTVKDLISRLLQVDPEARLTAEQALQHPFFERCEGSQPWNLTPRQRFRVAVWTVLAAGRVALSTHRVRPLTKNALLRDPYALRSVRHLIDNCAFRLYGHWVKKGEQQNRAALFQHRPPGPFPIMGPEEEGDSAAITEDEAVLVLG

[7] = target: T5, Eukaryotic elongation factor 2 kinase (Homo sapiens) (UniProt O00418); assay: Inhibition of human recombinant eEF2K at 40 nM related to control ULK1
T5 sequence (whole entry): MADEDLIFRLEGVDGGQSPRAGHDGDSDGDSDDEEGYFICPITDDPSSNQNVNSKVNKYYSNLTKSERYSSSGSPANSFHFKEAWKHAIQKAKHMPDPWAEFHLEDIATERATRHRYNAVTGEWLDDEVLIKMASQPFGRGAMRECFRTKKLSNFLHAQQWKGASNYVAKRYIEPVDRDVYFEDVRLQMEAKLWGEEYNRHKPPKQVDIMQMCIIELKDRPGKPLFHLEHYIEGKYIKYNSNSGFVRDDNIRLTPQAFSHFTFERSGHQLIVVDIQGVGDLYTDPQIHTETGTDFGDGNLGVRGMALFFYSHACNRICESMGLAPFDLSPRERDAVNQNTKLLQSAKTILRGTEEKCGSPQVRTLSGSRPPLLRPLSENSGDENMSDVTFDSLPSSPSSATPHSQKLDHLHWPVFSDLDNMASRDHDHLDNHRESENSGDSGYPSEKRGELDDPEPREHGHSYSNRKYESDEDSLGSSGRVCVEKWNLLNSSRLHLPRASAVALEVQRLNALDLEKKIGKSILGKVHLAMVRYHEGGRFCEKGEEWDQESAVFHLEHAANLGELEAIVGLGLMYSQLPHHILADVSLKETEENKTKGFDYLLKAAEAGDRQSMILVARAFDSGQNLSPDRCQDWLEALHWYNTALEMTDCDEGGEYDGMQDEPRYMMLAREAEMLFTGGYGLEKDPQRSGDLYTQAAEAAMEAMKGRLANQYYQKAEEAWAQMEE

fold change (FC) [1] | fold change (FC) [2] | fold change (FC) [3] | fold change (FC) [4] | fold change (FC) [5] | inhibition [6] | fold change (FC) [7] | Structure (SMILES)
0.08 | 1.05 | 0.03 | 1.14 |  |  |  | CNC(=O)c1ccccc1Oc1nc(Nc2cc(OC)c(OC)c(OC)c2)ncc1Br
 |  |  |  | 0.1 | 0% | 0.1 | O=C(N[C@@H](C1CC1)C(F)(F)F)c1cc(-c2cnn3cc(-c4ccc(F)cc4)cnc23)cs1
